# Data as given in US9415055B2, “Cyclic amines” (H. Lundbeck A/S, priority 2012, dated 2016).
# Molecular target: P2X7 receptor (Homo sapiens (Human), UniProt Q99572)
# Test: P2X7 FLIPR assay: antagonism of BzATP response in 293 HEK cells stably expressing P2X7 receptor
# Format: cell-based
# Details: FLIPR fluorescence (Fluo-4), agonist BzATP, 293 HEK cells stably transfected with P2X7 receptor
# Procedure: Cells were plated to cell density of approximately 15,000 cells/well in 384-well assay plates (50 μl/well) with 1.5% low serum media (DMEM, 1.5% BCS, 1% L-glut (2 mM), 1% P/S).
# Cells were plated to cell density of approximately 15,000 cells/well in 384-well assay plates (50 μl/well) with 1.5% low serum media (DMEM, 1.5% FBS, 1% L-glut (2 mM), 10 mM HEPES, 1% P/S). Cells were plated 24 hours prior to assay. Cells expressing human, rat or mouse P2X7 receptor were assayed in the following manner.
# Fluo-4 NW dye mix (Molecular Probes, Inc., Eugene, Oreg., USA) was prepared in buffer (see manufacturer's instructions). Cell plates were removed from the 37° C. incubator, the media discarded and then 30 μL of dye was added to each well. Plates were placed in the 37° C., non-CO2 incubator for 30 minutes and then room temperature for 30 minutes.
# Compound mixtures (A) were added to assay plates containing cells and placed at room temperature for 30 minutes, then BzATP (B) was added. Fluorescence was read using the Tetra FLIPR® (Molecular Devices, Inc., Sunnyvale, Calif., USA) and IC50 values were calculated by standard methods to determine antagonist activity.
# Sequence of P2X7 receptor (Q99572 whole entry): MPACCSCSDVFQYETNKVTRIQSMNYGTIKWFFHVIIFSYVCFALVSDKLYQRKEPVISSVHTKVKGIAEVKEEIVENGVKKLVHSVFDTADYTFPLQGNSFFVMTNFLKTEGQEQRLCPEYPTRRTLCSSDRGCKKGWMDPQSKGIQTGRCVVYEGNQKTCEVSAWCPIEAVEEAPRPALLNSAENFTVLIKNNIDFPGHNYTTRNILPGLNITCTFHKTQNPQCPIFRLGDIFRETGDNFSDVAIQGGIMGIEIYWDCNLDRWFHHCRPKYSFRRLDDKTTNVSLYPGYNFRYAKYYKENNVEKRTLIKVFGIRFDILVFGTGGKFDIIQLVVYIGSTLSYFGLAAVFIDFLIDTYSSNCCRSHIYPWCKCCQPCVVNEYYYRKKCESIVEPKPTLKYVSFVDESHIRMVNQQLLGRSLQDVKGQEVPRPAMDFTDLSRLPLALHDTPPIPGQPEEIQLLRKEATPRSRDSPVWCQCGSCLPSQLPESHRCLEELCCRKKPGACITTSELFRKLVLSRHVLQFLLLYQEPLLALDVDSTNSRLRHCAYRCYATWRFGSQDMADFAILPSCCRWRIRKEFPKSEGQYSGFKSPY
row,SMILES,IC50 [nM]
1,"O=C(NCC(c1ccc(Cl)cc1)N1CCC(F)(F)CC1)c1cccc(Cl)c1Cl (centres unmarked) [N-[2-(4-Chloro-phenyl)-2-(4,4-difluoro-piperidin-1-yl)-ethyl]-2,3-dichloro-benzamide]",46
2,"Cc1cccc(C(=O)NCC(c2cccnc2)N2CCOCC2)c1C (centres unmarked) [2,3-Dimethyl-N-(2-morpholin-4-yl-2-pyridin-3-yl-ethyl)-benzamide]",2700
3,"O=C(NCC(c1cnc(C2CC2)nc1)N1CCC(F)(F)CC1)c1c(F)cccc1Cl (single isomer, unassigned; (+)) [(+)2-chloro-N-[2-(2-cyclopropylpyrimidin-5-yl)-2-(4,4-difluo] [(+)2-chloro-6-fluoro-N-(2-(2-cyclopropylpyrimidin-5-yl)-2-(4,4-difluoropiperidin-1-yl)ethyl)benzamide]",9.9
4,"COc1cccc(C(=O)NCC(c2ccc(Cl)cc2)N2CCOCC2)c1Cl (single isomer, unassigned; (+)) [(+)2-chloro-N-[2-(4-chlorophenyl)-2-morpholino-ethyl]-3-meth] [(+)2-chloro-N-(2-(4-chlorophenyl)-2-morpholinoethyl)-3-methoxybenzamide]",4.2
5,"O=C(NCC(c1cnc(C(F)(F)F)nc1)N1CCC(F)CC1)c1ccccc1Cl (single isomer, unassigned; (+)) [(+)2-chloro-N-[2-(4-fluoro-1-piperidyl)-2-[2-(trifluoromethy] [(+)2-chloro-N-(2-(4-fluoropiperidin-1-yl)-2-(2-(trifluoromethyl)pyrimidin-5-yl)ethyl)benzamide]",15
6,"O=C(NCC(c1cnc(C(F)(F)F)nc1)N1CCC(F)(F)CC1)c1ccc(Cl)cc1Cl (single isomer, unassigned; (+)) [(+)2,4-dichloro-N-[2-(4,4-difluoro-1-piperidyl)-2-[2-(triflu] [(+)2,4-dichloro-N-(2-(4,4-difluoropiperidin-1-yl)-2-(2-(trifluoromethyl)pyrimidin-5-yl)ethyl)benzamide]",5.6
7,"O=C(NCC(c1ccc(C(F)(F)F)nc1)N1CCOCC1)c1c(F)cccc1F (single isomer, unassigned; (+)) [(+)2,6-difluoro-N-[2-morpholino-2-[6-(trifluoromethyl)-3-pyr] [(+)2,6-Difluoro-N-[2-morpholino-2-[6-(trifluoromethyl)-3-pyridyl]ethyl]benzamide]",29
8,"Cc1ncc(C(CNC(=O)c2cccc(OC(F)(F)F)c2Cl)N2CCC(F)(F)CC2)cn1 (single isomer, unassigned; (+)) [(+)2-chloro-N-[2-(4,4-difluoro-1-piperidyl)-2-(2-methylpyrim] [(+)2-chloro-N-(2-(4,4-difluoropiperidin-1-yl)-2-(2-methylpyrimidin-5-yl)ethyl)-3-(trifluoromethoxy)benzamide]",21
9,"CC(C)S(=O)(=O)c1ccc(Cl)c(C(=O)NCC(c2ccc(Cl)cc2)N2CCOCC2)c1 (single isomer, unassigned; (-)) [(−)2-chloro-N-(2-(4-chlorophenyl)-2-morpholinoethyl)-5-(isopropylsulfonyl)benzamide]",47
10,"Cc1ncc(C(CNC(=O)c2cccc(F)c2Cl)N2CCCOCC2)cn1 (centres unmarked) [2-chloro-3-fluoro-N-(2-(2-methylpyrimidin-5-yl)-2-(1,4-oxazepan-4-yl)ethyl)benzamide]",330
11,Cc1ncc(C(CNC(=O)c2c(F)cccc2Cl)N2CCOCC2)cn1 (centres unmarked) [2-chloro-6-fluoro-N-(2-(2-methylpyrimidin-5-yl)-2-morpholinoethyl)benzamide],590
12,"COc1cccc(C(=O)NCC(c2ccc(Cl)cc2)N2CCOCC2)c1Cl (single isomer, unassigned; (-)) [(−)2-chloro-N-[2-(4-chlorophenyl)-2-morpholino-ethyl]-3-meth] [(−)2-chloro-N-(2-(4-chlorophenyl)-2-morpholinoethyl)-3-methoxybenzamide]",1.5
13,"CCc1ncc(C(CNC(=O)c2ccccc2Cl)N2CCC(F)(F)CC2)cn1 (single isomer, unassigned; (+)) [(+)2-chloro-N-[2-(4,4-difluoro-1-piperidyl)-2-(2-ethylpyrimi] [(+)2-chloro-N-(2-(4,4-difluoropiperidin-1-yl)-2-(2-ethylpyrimidin-5-yl)ethyl)benzamide]",12
14,"Cc1ncc(C(CNC(=O)c2c(Cl)ccc(F)c2Cl)N2CCC(F)(F)CC2)cn1 (single isomer, unassigned; (-)) [(−)2,6-dichloro-N-[2-(4,4-difluoro-1-piperidyl)-2-(2-methylp] [(−)2,6-dichloro-5-fluoro-N-(2-(4,4-difluoropiperidin-1-yl)-2-(2-methylpyrimidin-5-yl)ethyl)benzamide]",37
15,"COc1cccc(C(=O)NCC(c2cnc(C(F)(F)F)nc2)N2CCC(F)(F)CC2)c1Cl (single isomer, unassigned; (-)) [(−)2-chloro-N-[2-(4,4-difluoro-1-piperidyl)-2-[2-(trifluorom] [(−)2-chloro-N-(2-(4,4-difluoropiperidin-1-yl)-2-(2-(trifluoromethyl)pyrimidin-5-yl)ethyl)-3-methoxybenzamide]",4.8
16,"Cc1ncc(C(CNC(=O)c2c(Cl)cccc2Cl)N2CCCOCC2)cn1 (centres unmarked) [2,6-dichloro-N-(2-(2-methylpyrimidin-5-yl)-2-(1,4-oxazepan-4-yl)ethyl)benzamide]",740
17,"Cc1ccccc1C(=O)NCC(c1ccc(Cl)cc1)N1CCC(F)(F)CC1 (centres unmarked) [N-[2-(4-Chloro-phenyl)-2-(4,4-difluoro-piperidin-1-yl)-ethyl]-2-methyl-benzamide]",2
18,"O=C(NCC(c1cnc(C(F)(F)F)nc1)N1CCOCC1)c1ccccc1F (single isomer, unassigned; (-)) [(−)2-Fluoro-N-[2-morpholino-2-[2-(trifluoromethyl)pyrimidin-5-yl]ethyl]benzamide]",44
19,"Cn1cc(C(CNC(=O)c2cccc(Cl)c2Cl)N2CCC(F)(F)CC2)cn1 (single isomer, unassigned; (-)) [(−)2,3-dichloro-N-[2-(4,4-difluoro-1-piperidyl)-2-(1-methylp] [(−)2,3-dichloro-N-(2-(4,4-difluoropiperidin-1-yl)-2-(1-methyl-1H-pyrazol-4-yl)ethyl)benzamide]",25
20,"O=C(NCC(c1ccc(F)nc1)N1CCC(F)(F)CC1)c1cccc(Cl)c1Cl (centres unmarked) [2,3-Dichloro-N-[2-(4,4-difluoro-1-piperidyl)-2-(6-fluoro-3-pyridyl)ethyl]benzamide]",0.89
21,Cc1ccccc1C(=O)NC[C@H](c1ccc(Cl)cc1)N1CCOCC1 [N-[(S)-2-(4-Chloro-phenyl)-2-morpholin-4-yl-ethyl]-2-methyl-benzamide],9.3
22,"O=C(NCC(c1cnc(C(F)(F)F)nc1)N1CCC(F)(F)CC1)c1c(Cl)ccc(F)c1Cl (single isomer, unassigned; (+)) [(+)2,6-dichloro-N-[2-(4,4-difluoro-1-piperidyl)-2-[2-(triflu] [(+)2,6-dichloro-5-fluoro-N-(2-(4,4-difluoropiperidin-1-yl)-2-(2-(trifluoromethyl)pyrimidin-5-yl)ethyl)benzamide]",7.1
23,"O=C(NCC(c1cnc(C(F)(F)F)nc1)N1CCC(F)(F)CC1)c1cc(F)cc(Cl)c1Cl (single isomer, unassigned; (-)) [(−)2,3-dichloro-N-[2-(4,4-difluoro-1-piperidyl)-2-[2-(triflu] [(−)2,3-dichloro-5-fluoro-N-(2-(4,4-difluoropiperidin-1-yl)-2-(2-(trifluoromethyl)pyrimidin-5-yl)ethyl)benzamide]",2.2
